Reference: the supplement of paper PMC10307832

Legend:
Test in all cases: relative viability (nuclei count vs DMSO), 5 days (fraction); higher = more cells survive
[1] = compound: CC1=CC(=CC=C1)NC2=NC(=CS2)C3=CC=NC=C3 + Cc1cc(Nc2cc(N3CCN(C)CC3)nc(Sc3ccc(NC(=O)C4CC4)cc3)n2)n[nH]1 [Tozasertib] (partner 0.1 µM)
Summary of the method: (§1)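 Relative viability was taken as the ratio of nuclei in treated wells to nuclei in vehicle wells. Lung cancer cell lines in 1536-well plates received compounds by pin tool one day after seeding, either one drug alone or a fixed anchor-drug dose plus five library-drug doses (not always all listed) in √10 steps. Nuclei were counted on 4× images after 5 days of treatment, and values are medians of duplicate plates.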

Masitinib + Bortezomib = compound: Cc1ccc(NC(=O)c2ccc(CN3CCN(C)CC3)cc2)cc1Nc1nc(-c2cccnc2)cs1 [Masitinib] + CC(C)C[C@H](NC(=O)[C@H](Cc1ccccc1)NC(=O)c1cnccn1)B(O)O [Bortezomib] (partner 0.002 µM)
Summary of the method: as §1

Masitinib + Foretinib = compound: Cc1ccc(NC(=O)c2ccc(CN3CCN(C)CC3)cc2)cc1Nc1nc(-c2cccnc2)cs1 [Masitinib] + COc1cc2c(Oc3ccc(NC(=O)C4(C(=O)Nc5ccc(F)cc5)CC4)cc3F)ccnc2cc1OCCCN1CCOCC1 [Foretinib] (partner 0.25 µM)
Summary of the method: as §1

Masitinib + Linsitinib = compound: Cc1ccc(NC(=O)c2ccc(CN3CCN(C)CC3)cc2)cc1Nc1nc(-c2cccnc2)cs1 [Masitinib] + C[C@]1(O)C[C@@H](c2nc(-c3ccc4ccc(-c5ccccc5)nc4c3)c3c(N)nccn32)C1 [Linsitinib] (partner 1 µM)
Summary of the method: as §1

Cell Line	relative viability ([1]; first compound 0.08 µM)	relative viability ([1]; first compound 0.253 µM)	relative viability ([1]; first compound 0.8 µM)	relative viability ([1]; first compound 2.53 µM)	relative viability ([1]; first compound 8 µM)	relative viability (Masitinib + Bortezomib; first compound 0.01 µM)	relative viability (Masitinib + Bortezomib; first compound 0.03162 µM)	relative viability (Masitinib + Bortezomib; first compound 0.1 µM)	relative viability (Masitinib + Bortezomib; first compound 0.3162 µM)	relative viability (Masitinib + Bortezomib; first compound 1 µM)	relative viability (Masitinib + Foretinib; first compound 0.01 µM)	relative viability (Masitinib + Foretinib; first compound 0.03162 µM)	relative viability (Masitinib + Foretinib; first compound 0.1 µM)	relative viability (Masitinib + Foretinib; first compound 0.3162 µM)	relative viability (Masitinib + Foretinib; first compound 1 µM)	relative viability (Masitinib + Linsitinib; first compound 0.01 µM)	relative viability (Masitinib + Linsitinib; first compound 0.03162 µM)	relative viability (Masitinib + Linsitinib; first compound 0.1 µM)	relative viability (Masitinib + Linsitinib; first compound 0.3162 µM)	relative viability (Masitinib + Linsitinib; first compound 1 µM)
NCI-H1437	0.417	0.465	0.448	0.448	0.407	0.468	0.637	0.585	0.577	0.438	1.26	1.26	1.3	1.13	1.27	1.1	0.991	0.986	1.04	1.07
NCI-H1651	0.62	0.684	0.561	0.531	0.51	0.891	0.941	0.927	0.983	0.944	0.688	0.755	0.862	0.789	0.94	0.971	0.97	1.14	1	0.944
NCI-H1666	0.588	0.56	0.503	0.582	0.436	0.71	0.726	0.854	0.555	0.612	–	0.889	0.91	1.03	1	0.806	0.774	0.846	0.781	0.718
NCI-H1734	0.25	0.285	0.22	0.246	0.23	0.899	0.772	1.01	0.949	0.853	0.922	0.914	0.898	1.05	0.811	0.857	0.854	0.943	0.747	0.855
NCI-H1755	0.539	0.608	0.47	0.539	0.394	–	0.966	0.832	0.907	0.816	–	0.927	0.975	0.897	0.828	–	0.976	1	1.02	0.955
NCI-H1915	0.455	0.442	0.411	0.367	0.404	–	0.894	0.805	1.04	0.926	–	1.13	–	1.1	1.11	–	1.15	1.09	0.974	1.03
NCI-H1975	0.693	0.654	0.281	0.181	0.179	0.378	0.319	0.388	0.319	0.373	1.02	0.96	0.924	–	0.998	0.995	0.92	1.03	0.832	0.908
NCI-H1993	0.543	0.605	0.562	0.617	0.519	1.01	–	1.21	1.03	1.03	0.864	0.862	0.828	0.638	0.742	0.732	–	0.733	0.659	0.665
NCI-H2009	0.737	0.699	0.715	0.823	0.704	0.666	1.1	0.887	0.894	0.939	1.18	1.17	1.18	1.18	1.19	1.2	1.22	1.24	1.23	1.17
NCI-H2023	0.332	0.332	0.321	0.228	0.116	0.734	0.967	0.79	0.862	0.879	0.786	0.721	0.745	0.836	0.73	0.597	0.681	0.703	0.613	0.597
NCI-H2085	0.748	0.744	0.652	0.467	0.421	0.87	0.99	1.03	1.27	1.06	0.851	0.91	0.919	1.23	0.878	0.787	0.914	0.955	1.01	0.726
NCI-H2087	0.197	0.229	0.245	0.19	0.216	0.544	0.741	0.756	0.958	0.779	1.26	0.907	1.18	1.11	1.17	0.936	0.951	0.923	1.01	0.884
NCI-H2126	0.77	0.756	0.798	0.686	0.737	1.05	1.17	1.1	1.03	1.11	1.08	0.97	1.08	1.35	1.02	0.707	0.656	0.785	0.691	0.659
NCI-H2228	0.24	0.198	0.175	0.162	0.157	1.07	1.68	1.05	1.25	0.975	0.672	0.763	0.838	0.861	0.777	0.703	0.58	0.609	0.807	0.52
NCI-H2347	0.51	0.605	–	0.489	0.489	0.829	1.02	0.938	0.899	0.903	1.02	0.847	1.09	0.787	1.15	0.758	0.911	0.867	0.948	1.09
NCI-H2405	0.65	0.727	0.541	0.691	0.602	0.929	0.878	0.879	0.944	0.948	0.943	1.02	0.98	0.963	1.05	0.96	1.01	0.945	0.882	0.9
